In patent publication US20070078096A1, “Buffered drug formulations for transdermal electrotransport delivery” (priority 1997, published 2007):
Converted amounts (≈) assume the structure as drawn. Read-outs that look alike come from different tables or passages of the source. Residues, ends and D or L forms follow the SMILES beside them.

What was measured:
[1] = Conductivity of dipeptides at their pI; type: physicochemical
Text: (§1) Table 1 lists conductivities and solubilities of selected dipeptides useful in the present invention, at their pI.

[2] = Solubility of dipeptides at their pI; type: physicochemical
Text: as §1

[3] = pKa, pI and charge distribution of buffers; conditions: for % salt: fraction of dipeptide carrying a net charge in aqueous solution at pH equal to pI
Text: At the pI, three species coexist.
In an electric field these negative species move in the opposite direction of their positive associated counterions.
Choice of the dipeptide buffer will be on a case-by-case basis depending on the drug compound and the desired level of pH control and conductivity of the formulation.

[4] = In vivo iontophoresis, pH control of anodic and cathodic buffer gels (Example 2); design: species or system hairless guinea pigs; Ionic strength (approx.): unit not given here; conditions: for Anodic pH after 5 h electrotransport / Cathodic pH after 5 h electrotransport: 0.1 mA/cm^2; for pH control of a cathodic electrotransport formulation: for at least 5 hours; for pH control of a cathodic electrotransport formulation / pH control of an anodic electrotransport formulation: dipeptides at their pI
Protocol: In vivo iontophoresis experiments were performed using custom built electrotransport systems. […] This formulation was separated from the anode electrode by a Sybron ion exchange membrane. […] The cathode-compartment comprised a skin-contacting gel containing the aqueous solution of the buffering agent at the indicated concentration and 3% HEC. This formulation was separated from the cathode electrode by a Nafion ion exchange membrane. […] The electrodes were connected to a DC power source which supplied a constant level of electric current of 0.1 mA/cm^2. Experiments were performed in vivo in hairless guinea pigs. Three animals were used for each condition studied. The electrotransport systems were applied to and removed from the flank of the animals. The two reservoirs were generally spaced about 5 cm apart. The application site was wiped with water prior to system application. pH of the gels was measured prior to application and after removal of the systems using a HORIBA compact pH […]).

[5] = pH stability of formulations with TMAB or SMS during electrotransport (Example 4); type: in vivo, hairless guinea pigs
Text: The effect of the zwitterionic buffer Gly-His and His-Glu on pH stability of formulations containing small molecular weight drug-like compounds during electrotransport to hairless guinea pigs was studied. Trimethylammonium bromide (TMAB) was used as the cationic model drug and sodium methanesulfate (SMS) was used as the model anionic drug.
The electrodes were connected to a DC power source which supplied a constant level of electric current of 0.100 mA/cm^2. The anodic electrode assembly comprised a skin-contacting gel containing the aqueous solution of His-Glu 66 mM or Gly-His 45 mM and TMAB at 50 mM and 3% HEC. This formulation was separated from the silver anode by a Sybron ion exchange membrane. A gel containing 0.15 M sodium chloride (which acted as a chloride source) was placed between the silver anode and the ion exchange membrane. The cathodic electrode assembly comprised a skin-contacting gel containing the aqueous solution of His-Glu 66 mM or Gly-His 45 mM and SMS 50 mM and 3% HEC. The cathodic gel reservoir was separated from the silver chloride cathode by a Nafion ion exchange membrane. A gel containing 0.1 5M sodium chloride was placed between the cathode and the ion exchange membrane. The ionic strength of the skin-contacting gels was 60 mM.
Experiments were performed in vivo in hairless guinea pigs. Two animals were used for each condition studied. The electrotransport systems were applied to and removed from the backs of the animals. The two reservoirs were generally spaced about 5 cm apart. The application site was wiped with 70% isopropyl alcohol wipes prior to system application. Donor reservoir gel pH was measured prior to application and after removal of the systems using a HORIBA compact pH meter (Cardy).

[6] = cathodic gel, prior to application

N[C@@H](Cc1cnc[nH]1)C(=O)N[C@@H](CCC(=O)O)C(=O)O [His-Glu] (H-His-Glu-OH)
Conductivity at 10^−2 Molar [1]: 40 μS/cm | Solubility [2]: 400 mM (≈ 114 mg/mL) | pI [3]: 5.2 | pI ([3]; Table 1): 5.20 | pI ([3]; Table 2): 5.20 | species presenting a net charge (salt form) at the pI ([3]; at pI): about 15% | % salt [3]: 15% | pH after 24 h electrotransport ([4]; Anode, listed as His-Glu 100 mM): 5.5 | pH after 24 h electrotransport ([4]; Anode, listed as His-Glu 250 mM): 5.4 | pH after 24 h electrotransport ([4]; Cathode, listed as His-Glu 100 mM): 5.4 | pH after 24 h electrotransport ([4]; Cathode, listed as His-Glu 250 mM): 5.2 | Ionic strength (approx.) ([4]; Table 3, anodic buffer gel, listed as His-Glu 100 mM): ~0.015 | Ionic strength (approx.) ([4]; Table 3, anodic buffer gel, listed as His-Glu 250 mM): ~0.037 | Ionic strength (approx.) ([4]; Table 4, cathodic buffer gel, listed as His-Glu 100 mM): ~0.015 | Ionic strength (approx.) ([4]; Table 4, cathodic buffer gel, listed as His-Glu 250 mM): ~0.037 | Initial pH ([4]; Table 5, Anode, listed as His-Glu 100 mM): 5.1 | Initial pH ([4]; Table 5, Anode, listed as His-Glu 250 mM): 5.2 | Initial pH ([4]; Table 5, Cathode): 5.3 | Anodic pH after 5 h electrotransport ([4]; anodic gel): 5.2 | Initial pH ([4]; anodic gel, prior to application, listed as His-Glu 100 mM): 5.1 | Initial pH ([4]; anodic gel, prior to application, listed as His-Glu 250 mM): 5.2 | Cathodic pH after 5 h electrotransport ([4]; cathodic gel): 5.0 | Initial pH [4, 6]: 5.3 | pH control of electrotransport formulations ([4]; electrotransport experiments in animals, at their pI, for several hours): capable of assuring pH control | pH control of a cathodic electrotransport formulation [4]: capable of assuring pH control | pH control of an anodic electrotransport formulation ([4]; for several hours): capable of assuring pH control | pH control of anodic and cathodic electrotransport formulations ([4]; for up to 24 hours, at their pI): capable of assuring pH control | Final pH ([5]; Anode, drug TMAB 50 mM): 5.3 | Initial pH ([5]; Anode, drug TMAB 50 mM): 5.1 | Final pH ([5]; Cathode, drug SMS 50 mM): 6.0 | Initial pH ([5]; Cathode, drug SMS 50 mM): 5.2 | pH control with TMAB or SMS ([5]; all experimental conditions tested (Table 7)): good pH control

N[C@@H](Cc1cnc[nH]1)C(=O)N[C@@H](CC(=O)O)C(=O)O [His-Asp] (H-His-Asp-OH)
Conductivity at 10^−2 Molar [1]: 28 μS/cm | Solubility [2]: 50 mM (≈ 13.5 mg/mL) | pI ([3]; Table 1): 5.22 | pI ([3]; Table 2): 5.22 | % salt [3]: 11%

N[C@@H](Cc1cnc[nH]1)C(=O)NCC(=O)O [His-Gly] (H-His-Gly-OH)
Conductivity at 10^−2 Molar [1]: 40 μS/cm | Solubility [2]: 1000 mM (≈ 212 mg/mL) | pka A [3]: 2.41 | pI ([3]; Table 1): 6.90 | pI ([3]; Table 2): 6.90 | % salt [3]: 16%

O=S(=O)(O)CCCN1CCOCC1 [MOPS, 3-[N-morpholino]propanesulphonic acid, reference compound]
pI [3]: 4 | buffering capacity at its pI ([3]; at pI): does not present any buffering capacity | conductivity of solutions at its pI ([3]; at pI): non-conductive | net charge at pH 7 ([3]; pH 7): −0.5 | Ionic strength (approx.) ([4]; Table 3, anodic buffer gel): ~0.01 | Ionic strength (approx.) ([4]; Table 4, cathodic buffer gel): ~0.01 | Anodic pH after 5 h electrotransport ([4]; anodic gel): 4.1 | Initial pH ([4]; anodic gel, prior to application): 7.0 | Cathodic pH after 5 h electrotransport ([4]; cathodic gel): 5.4 | Initial pH [4, 6]: 7.0 | pH control of a cathodic electrotransport formulation [4]: lack of stability | pH control of an anodic electrotransport formulation ([4]; for several hours): lack of stability

NCCCC[C@H](N)C(=O)N[C@@H](CCC(=O)O)C(=O)O [Lys-Glu] (H-Lys-Glu-OH)
Conductivity at 10^−2 Molar [1]: 8 μS/cm | Solubility [2]: 500 mM (≈ 138 mg/mL) | pI ([3]; Table 1): 6.06 | pI ([3]; Table 2): 6.06 | % salt [3]: 3%

O=P(O)(O)O [phosphate, phosphoric acid, reference compound]
Ionic strength (approx.) ([4]; Table 3, anodic buffer gel, listed as Phosphate 10 mM): ~0.015 | Ionic strength (approx.) ([4]; Table 3, anodic buffer gel, listed as Phosphate 33 mM): ~0.05 | Ionic strength (approx.) ([4]; Table 3, anodic buffer gel, listed as Phosphate 100 mM): ~0.15 | Ionic strength (approx.) ([4]; Table 4, cathodic buffer gel): ~0.015 | Anodic pH after 5 h electrotransport ([4]; anodic gel, listed as Phosphate 33 mM): 3.3 | Anodic pH after 5 h electrotransport ([4]; anodic gel, listed as Phosphate 100 mM): 6.5 | Initial pH ([4]; anodic gel, prior to application, listed as Phosphate 10 mM): 6.9 | Initial pH ([4]; anodic gel, prior to application, listed as Phosphate 33 mM): 6.9 | Initial pH ([4]; anodic gel, prior to application, listed as Phosphate 100 mM): 6.8 | Cathodic pH after 5 h electrotransport ([4]; cathodic gel): 4.2 | Initial pH [4, 6]: 6.9 | pH control of a cathodic electrotransport formulation [4]: lack of stability | pH control of an anodic electrotransport formulation ([4]; for several hours): lack of stability

CC(C)[C@H](N)C(=O)N[C@@H](Cc1cnc[nH]1)C(=O)O [Val-His] (H-Val-His-OH)
Conductivity at 10^−2 Molar [1]: 94 μS/cm | Solubility [2]: 200 mM (≈ 50.9 mg/mL) | pka A [3]: 3.09 | pI ([3]; Table 1): 7.38 | pI ([3]; Table 2): 7.38 | % salt [3]: 34%

NCCCC[C@H](N)C(=O)N[C@@H](CC(=O)O)C(=O)O [Lys-Asp] (H-Lys-Asp-OH)
Conductivity at 10^−2 Molar [1]: 6 μS/cm | Solubility [2]: 1000 mM (≈ 261 mg/mL) | pI ([3]; Table 1): 6.08 | pI ([3]; Table 2): 6.08 | % salt [3]: 2%

NCCCC[C@H](NC(=O)[C@@H](N)CCC(=O)O)C(=O)O [Glu-Lys] (H-Glu-Lys-OH)
Conductivity at 10^−2 Molar [1]: 6 μS/cm | Solubility [2]: 1000 mM (≈ 275 mg/mL) | pI ([3]; Table 1): 6.00 | pI ([3]; Table 2): 6.00 | % salt [3]: 2%

C[C@H](NC(=O)[C@@H](N)Cc1cnc[nH]1)C(=O)O [His-Ala] (H-His-Ala-OH)
Conductivity at 10^−2 Molar [1]: 60 μS/cm | Solubility [2]: 500 mM (≈ 113 mg/mL) | pka A [3]: 2.48 | pI ([3]; Table 1): 6.95 | pI ([3]; Table 2): 6.95 | % salt [3]: 22%
